System: male Sprague-Dawley rats
Test: EEG/EMG/Tcore/LMA telemetry sleep study 2 (EMPA vs ZOL)
Type: in vivo, rat
Conditions: for REM:NR ratio: 6 h after dosing
Description: All rodent electroencephalograph (EEG) studies were performed at SRI International. Three groups of eight male Sprague-Dawley rats (300±25 g; Charles River, Wilmington, MA) were implanted with chronic recording devices (F40-EET, Data Sciences Inc., St Paul, MN) for continuous recordings of EEG, electromyograph (EMG), core body temperature (Tcore), and LMA via telemetry as previously described. Data recording and scoring were performed as previously reported (see also Supplemental Material and Methods). The EEG and EMG data were scored in 10 sec epochs for waking (W), rapid eye movement sleep (REM), and non-REM sleep (NR). Tcore and LMA (counts per minute) were analyzed as hourly means. Data from the EEG studies are reported in hourly means such that the hourly time ZT1 refers to the hour between time points ZT0 and ZT1.
For each of the three separate studies, a repeated measures counter-balanced design was employed in which each rat received five separate dosings. […] All dosings were administered ip in a volume of 2 ml/kg. A minimum of 3 d elapsed between doses. Dosing occurred during the middle of the rats’ normal active period at the start of ZT19 and was typically completed within 10 min. Animals were continuously recorded for 6 h prior to dosing and for 18 h following dosing.

CCN(Cc1cccnc1)C(=O)CN(c1ccc(OC)nc1)S(=O)(=O)c1ccccc1C [EMPA, N-(Ethyl-2-[(6-methoxy-pyridin-3-yl)-(toluene-2-sulfonyl)-amino]-N-pyridin-3-ylmethyl-acetamide)]
LMA (in words) (100 mg/kg ip, across 6 h, vs vehicle): LMA was decreased
cumulative NR (in words) (100 mg/kg ip, first 4 and 6 h periods): increased cumulative NR
NR bout duration (6 h Average, 30 mg/kg ip): 1.43 ±0.14
REM bout duration (6 h Average, 30 mg/kg ip): 0.88 ± 0.09
W bout duration (6 h Average, 30 mg/kg ip): 5.35 ±0.77
NR bout duration (6 h Average, 100 mg/kg ip): 1.28 ± 0.12^+
REM bout duration (6 h Average, 100 mg/kg ip): 0.96 ± 0.09
W bout duration (6 h Average, 100 mg/kg ip): 3.54 ± 0.20
NR bout duration (6 h Average, EMPA 10 mg/kg ip): 1.34 ± 0.17
REM bout duration (6 h Average, EMPA 10 mg/kg ip): 0.79 ± 0.09
W bout duration (6 h Average, EMPA 10 mg/kg ip): 5.56 ± 0.52
Number of NR bouts (6 h Total, 30 mg/kg ip): 68.80 ± 7.18
Number of REM bouts (6 h Total, 30 mg/kg ip): 22.10 ± 3.30^+
Number of W bouts (6 h Total, 30 mg/kg ip): 51.30 ± 4.95
Number of NR bouts (6 h Total, 100 mg/kg ip): 84.80 ± 5.06
Number of REM bouts (6 h Total, 100 mg/kg ip): 20.00 ± 1.93^+
Number of W bouts (6 h Total, 100 mg/kg ip): 65.10 ± 3.37
Number of NR bouts (6 h Total, EMPA 10 mg/kg ip): 68.80 ±6.22
Number of REM bouts (6 h Total, EMPA 10 mg/kg ip): 18.10 ± 2.28^+
Number of W bouts (6 h Total, EMPA 10 mg/kg ip): 50.20 ±5.70
REM:NR ratio (10 mg/kg ip (EMPA)): 0.16±0.019^+
REM:NR ratio (30 mg/kg ip): 0.21±0.032^+
REM:NR ratio (100 mg/kg ip): 0.18±0.027^+
NR bout duration (ZT19, 30 mg/kg ip): 1.27± 0.15^+
Number of NR bouts (ZT19, 30 mg/kg ip): 9.90 ± 1.60
Number of REM bouts (ZT19, 30 mg/kg ip): 1.20± 0.49
Number of W bouts (ZT19, 30 mg/kg ip): 6.20± 0.98
REM bout duration (ZT19, 30 mg/kg ip): 0.62± 0.22
W bout duration (ZT19, 30 mg/kg ip): 11.89± 5.40
NR bout duration (ZT19, 100 mg/kg ip): 1.11± 0.19^+
Number of NR bouts (ZT19, 100 mg/kg ip): 10.80± 2.39
Number of REM bouts (ZT19, 100 mg/kg ip): 0.90± 0.46
Number of W bouts (ZT19, 100 mg/kg ip): 9.80± 2.48
REM bout duration (ZT19, 100 mg/kg ip): 0.86± 0.19
W bout duration (ZT19, 100 mg/kg ip): 13.14± 5.99
NR bout duration (ZT19, EMPA 10 mg/kg ip): 1.60± 0.25^+
Number of NR bouts (ZT19, EMPA 10 mg/kg ip): 7.40 ± 2.00
Number of REM bouts (ZT19, EMPA 10 mg/kg ip): 1.60± 0.67
Number of W bouts (ZT19, EMPA 10 mg/kg ip): 4.60± 1.25
REM bout duration (ZT19, EMPA 10 mg/kg ip): 0.64± 0.15
W bout duration (ZT19, EMPA 10 mg/kg ip): 16.42± 5.00
NR bout duration (ZT20, 30 mg/kg ip): 1.50± 0.28^+
Number of NR bouts (ZT20, 30 mg/kg ip): 12.50± 2.18
Number of REM bouts (ZT20, 30 mg/kg ip): 4.40± 0.96^+
Number of W bouts (ZT20, 30 mg/kg ip): 8.30± 1.27
REM bout duration (ZT20, 30 mg/kg ip): 0.87± 0.13
W bout duration (ZT20, 30 mg/kg ip): 9.83± 5.62
NR bout duration (ZT20, 100 mg/kg ip): 1.86± 0.28^+
Number of NR bouts (ZT20, 100 mg/kg ip): 16.50± 2.03
Number of REM bouts (ZT20, 100 mg/kg ip): 5.00± 1.12^+
Number of W bouts (ZT20, 100 mg/kg ip): 11.60± 1.11
REM bout duration (ZT20, 100 mg/kg ip): 0.88± 0.08
W bout duration (ZT20, 100 mg/kg ip): 2.46± 0.62
NR bout duration (ZT20, EMPA 10 mg/kg ip): 1.15± 0.15^+
Number of NR bouts (ZT20, EMPA 10 mg/kg ip): 14.00±2.52
Number of REM bouts (ZT20, EMPA 10 mg/kg ip): 4.10± 1.11
Number of W bouts (ZT20, EMPA 10 mg/kg ip): 10.70± 1.85
REM bout duration (ZT20, EMPA 10 mg/kg ip): 0.90± 0.18
W bout duration (ZT20, EMPA 10 mg/kg ip): 9.37± 5.67
NR bout duration (ZT21, 30 mg/kg ip): 1.52± 0.21
Number of NR bouts (ZT21, 30 mg/kg ip): 15.90± 2.21
Number of REM bouts (ZT21, 30 mg/kg ip): 5.80± 1.35
Number of W bouts (ZT21, 30 mg/kg ip): 11.70± 1.55
REM bout duration (ZT21, 30 mg/kg ip): 1.01 ± 0.11
W bout duration (ZT21, 30 mg/kg ip): 3.04± 0.83
NR bout duration (ZT21, 100 mg/kg ip): 1.17± 0.11
Number of NR bouts (ZT21, 100 mg/kg ip): 17.00± 2.91
Number of REM bouts (ZT21, 100 mg/kg ip): 4.10± 1.08
Number of W bouts (ZT21, 100 mg/kg ip): 12.40± 2.01
REM bout duration (ZT21, 100 mg/kg ip): 1.18 ± 0.14^+
W bout duration (ZT21, 100 mg/kg ip): 8.88± 5.82
NR bout duration (ZT21, EMPA 10 mg/kg ip): 1.12± 0.17
Number of NR bouts (ZT21, EMPA 10 mg/kg ip): 13.50± 2.15
Number of REM bouts (ZT21, EMPA 10 mg/kg ip): 3.40± 0.73
Number of W bouts (ZT21, EMPA 10 mg/kg ip): 10.20± 1.61
REM bout duration (ZT21, EMPA 10 mg/kg ip): 0.69 ± 0.11
W bout duration (ZT21, EMPA 10 mg/kg ip): 6.55± 2.67
NR bout duration (ZT22, 30 mg/kg ip): 1.38± 0.15
Number of NR bouts (ZT22, 30 mg/kg ip): 12.20± 1.65
Number of REM bouts (ZT22, 30 mg/kg ip): 5.30± 1.09
Number of W bouts (ZT22, 30 mg/kg ip): 9.20± 1.32
REM bout duration (ZT22, 30 mg/kg ip): 0.83± 0.13
W bout duration (ZT22, 30 mg/kg ip): 4.90± 1.31
NR bout duration (ZT22, 100 mg/kg ip): 1.32± 0.31
Number of NR bouts (ZT22, 100 mg/kg ip): 18.40± 2.70
Number of REM bouts (ZT22, 100 mg/kg ip): 4.80± 0.98
Number of W bouts (ZT22, 100 mg/kg ip): 13.20± 1.76
REM bout duration (ZT22, 100 mg/kg ip): 0.84± 0.17
W bout duration (ZT22, 100 mg/kg ip): 2.84± 0.49
NR bout duration (ZT22, EMPA 10 mg/kg ip): 1.33± 0.24
Number of NR bouts (ZT22, EMPA 10 mg/kg ip): 12.70± 1.87
Number of REM bouts (ZT22, EMPA 10 mg/kg ip): 3.30± 0.58
Number of W bouts (ZT22, EMPA 10 mg/kg ip): 8.20± 1.73
REM bout duration (ZT22, EMPA 10 mg/kg ip): 0.84± 0.16
W bout duration (ZT22, EMPA 10 mg/kg ip): 7.34± 2.67
NR bout duration (ZT23, 30 mg/kg ip): 0.90± 0.11^+
Number of NR bouts (ZT23, 30 mg/kg ip): 10.80± 2.35
Number of REM bouts (ZT23, 30 mg/kg ip): 3.40± 1.24
Number of W bouts (ZT23, 30 mg/kg ip): 8.00± 1.56
REM bout duration (ZT23, 30 mg/kg ip): 0.75± 0.21
W bout duration (ZT23, 30 mg/kg ip): 11.46± 5.56
NR bout duration (ZT23, 100 mg/kg ip): 1.10± 0.20
Number of NR bouts (ZT23, 100 mg/kg ip): 12.30± 1.25
Number of REM bouts (ZT23, 100 mg/kg ip): 3.20± 0.63
Number of W bouts (ZT23, 100 mg/kg ip): 8.60± 1.01
REM bout duration (ZT23, 100 mg/kg ip): 0.96± 0.19
W bout duration (ZT23, 100 mg/kg ip): 4.89 ±0.81
NR bout duration (ZT23, EMPA 10 mg/kg ip): 1.39± 0.18
Number of NR bouts (ZT23, EMPA 10 mg/kg ip): 11.00± 1.40
Number of REM bouts (ZT23, EMPA 10 mg/kg ip): 3.40± 0.65
Number of W bouts (ZT23, EMPA 10 mg/kg ip): 7.90± 1.27
REM bout duration (ZT23, EMPA 10 mg/kg ip): 0.85± 0.09
W bout duration (ZT23, EMPA 10 mg/kg ip): 6.10± 1.02
NR bout duration (ZT24, 30 mg/kg ip): 1.45± 0.49
Number of NR bouts (ZT24, 30 mg/kg ip): 7.50± 1.61
Number of REM bouts (ZT24, 30 mg/kg ip): 2.00± 0.94
Number of W bouts (ZT24, 30 mg/kg ip): 7.10± 1.63
REM bout duration (ZT24, 30 mg/kg ip): 0.69± 0.13
W bout duration (ZT24, 30 mg/kg ip): 16.83± 7.31
NR bout duration (ZT24, 100 mg/kg ip): 1.04± 0.17
Number of NR bouts (ZT24, 100 mg/kg ip): 9.40± 2.24
Number of REM bouts (ZT24, 100 mg/kg ip): 2.00± 1.01
Number of W bouts (ZT24, 100 mg/kg ip): 8.40± 1.92
REM bout duration (ZT24, 100 mg/kg ip): 0.49± 0.09
W bout duration (ZT24, 100 mg/kg ip): 14.62± 6.09
NR bout duration (ZT24, EMPA 10 mg/kg ip): 1.25± 0.18^+
Number of NR bouts (ZT24, EMPA 10 mg/kg ip): 10.00± 2.22
Number of REM bouts (ZT24, EMPA 10 mg/kg ip): 2.30± 0.98
Number of W bouts (ZT24, EMPA 10 mg/kg ip): 7.80± 1.76
REM bout duration (ZT24, EMPA 10 mg/kg ip): 0.54± 0.10
W bout duration (ZT24, EMPA 10 mg/kg ip): 9.17± 2.45
NR or REM latency (in words) (administered in the mid-dark phase): no effect on either NR or REM latency
number of W bouts (in words) (all three concentrations (10, 30, 100 mg/kg ip)): increased the number of W bouts
Tcore (in words) (high concentration tested, across 6 h): decreased Tcore
NR during the subsequent light period (in words) (light period): No significant effects on NR

— PMC3388080 (PLoS ONE, 2012)
